# Laboratory results taken from patent publication US20090306062A1, “2,5-Disubstituted Piperidines” (priority 2006, published 2009).
# Target: T1, renin (Homo sapiens, UniProt P00797)
# T1 construct: This test measures the formation of angiotensin I in human plasma; from tissue; host or cells: human plasma
# T1 sequence (P00797 67-406): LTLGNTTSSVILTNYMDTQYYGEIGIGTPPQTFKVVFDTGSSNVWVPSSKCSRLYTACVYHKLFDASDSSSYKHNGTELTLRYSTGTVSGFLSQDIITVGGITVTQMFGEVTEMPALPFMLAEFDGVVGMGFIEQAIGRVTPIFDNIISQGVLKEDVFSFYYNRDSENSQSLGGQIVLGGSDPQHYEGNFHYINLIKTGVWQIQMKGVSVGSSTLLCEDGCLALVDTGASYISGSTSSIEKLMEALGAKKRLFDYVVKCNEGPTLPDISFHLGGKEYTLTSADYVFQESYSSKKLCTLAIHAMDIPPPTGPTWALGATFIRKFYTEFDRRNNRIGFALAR
# Assay: in vitro test according to Nussberger et al.: formation of angiotensin I in human plasma, radioimmunoassay
# Type: biochemical
# Settings: range stated for the listed examples together, read-out: IC50, inhibition of the formation of angiotensin I
# Experimental: One experimental method of detecting the action of renin inhibitors is by means of in vitro tests, in which the reduction of the formation of angiotensin I in different systems (human plasma, purified human renin together with synthetic or natural renin substrate) is measured. One in vitro test which is used is the one according to Nussberger et al. (1987) J. Cardiovascular Pharmacol., Vol. 9, p. 39-44 which follows. This test measures the formation of angiotensin I in human plasma. The amount of angiotensin I formed is determined in a subsequent radioimmunoassay. Which action inhibitors have on the formation of angiotensin I is tested in this system by the addition of different concentrations of these substances. The IC50 refers to that concentration of the particular inhibitor which reduces the formation of angiotensin I by 50%.
row,SMILES,IC50
1,"COCCCN1CCOc2ccc(CO[C@@H]3CC[C@@H](C[C@@H](NC(=O)CC4CCOCC4)C(C)C)NC3)cc21 [Example 89, N—((R(or S))-1-{(2S,5R)-5-[4-(3-Methoxypropyl)-3,4-dihydro-2H-benzo[1,4]oxazin-6-ylmethoxy]piperidin-2-ylmethyl}-2-methylpropyl)-2-(tetrahydropyran-4-yl)acetamide]",74 to 2800 nM
2,"COCCCN1CCOc2ccc(CO[C@@H]3CC[C@@H](CC(C)(C)C(=O)NCC(C)(C)C(N)=O)NC3)cc21 [Example 26, N-(2-Carbamoyl-2-methylpropyl)-3-{(2S,5R)-5-[4-(3-methoxypropyl)-3,4-dihydro-2H-benzo[1,4]oxazin-6-ylmethoxy]piperidin-2-yl}-2,2-dimethylpropionamide]",74 to 2800 nM
3,"COCCCOc1cc(CO[C@@H]2CC[C@@H](CC(C)(C)C(=O)NCC3CCOCC3)NC2)ccc1F [Example 42, 3-{(2S,5R)-5-[4-Fluoro-3-(3-methoxypropoxy)benzyloxy]piperidin-2-yl}-2,2-dimethyl-N-(tetrahydropyran-4-ylmethyl)propionamide]",74 to 2800 nM

# More lines, now with the values ahead:
row,IC50,SMILES
1,74 to 2800 nM,"COCCCN1CCOc2ccc(CO[C@@H]3CC[C@@H](CC(C)(C)C(=O)NCC4CC4)NC3)cc21 [Example 25, N-Cyclopropylmethyl-3-{(2S,5R)-5-[4-(3-methoxypropyl)-3,4-dihydro-2H-benzo[1,4]oxazin-6-ylmethoxy]piperidin-2-yl}-2,2-dimethylpropionamide]"
2,74 to 2800 nM,"COCCCN1C(=O)[C@](C)(c2ccccc2)Oc2ccc(CO[C@@H]3CC[C@@H](CC(C)(C)C(=O)NCC4CCOCC4)NC3)cc21 [Example 52, (S)-3-{(2S,5R)-5-[(S)-4-(3-Methoxypropyl)-2-methyl-3-oxo-2-phenyl-3,4-dihydro-2H-benzo[1,4]oxazin-6-ylmethoxy]piperidin-2-yl}-2,2-dimethyl-N-(tetrahydropyran-4-ylmethyl)propionamide]"
